Values after ≈ are worked out from the molar mass of the structure shown. Where a SMILES comes first, the peptide text is derived from it.
Experiments:
B. subtilis = assay: microbe, parasite or virus in culture; type: cell-based, Bacillus subtilis
In short: (§1)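 MIC read-out = lowest peptide level with no bacterial proliferation. Strains diluted in MH medium to 2×10^6 CFU; peptide twofold serial dilutions in MH added 1:1 in microtiter wells.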

MDRAB 12035 = assay: MIC of antibiotic during combined treatment with antimicrobial peptide; type: cell-based, Acinetobacter baumannii
Procedure: (§2) Specifically, the strains described in [Table 2] were prepared and diluted with an MH medium such that the number of bacteria was 2×10^6 colony-forming units (CFUs) per 1 ml, 100 μl of the diluted strains was each aliquoted into a 96-well microtiter plate, and then 50 μl of a peptide solution diluted with the MH medium from the MIC value (solution diluted stepwise at 2: 1) was added to each well. Thereafter, the MIC value of each mixed solution was determined by diluting the antibiotic solution with the MH medium, adding 50 μl of the diluted solution to each well, and performing an experiment even under a reversed condition.

S. epidermidis = assay: microbe, parasite or virus in culture; type: cell-based, Staphylococcus epidermidis
In short: as §1

MDREC 1229 = assay: MIC of antibiotic during combined treatment with antimicrobial peptide; type: cell-based, Escherichia coli
Procedure: as §2

MDREC 1238 = type: cell-based, Escherichia coli
In short: as §1

MDRPA 2003 = type: cell-based, Pseudomonas aeruginosa
In short: as §1

MDRPA 2002 = type: cell-based, Pseudomonas aeruginosa
In short: as §1

S. aureus = assay: microbe, parasite or virus in culture; type: cell-based, Staphylococcus aureus
In short: as §1

MRSA 3114 = type: cell-based, Staphylococcus aureus; conditions: 3114
In short: as §1

[1] = peptide treatment concentration 1 μg/ml
[2] = peptide treatment concentration 2 μg/ml
[3] = peptide treatment concentration 4 μg/ml
[4] = peptide treatment concentration 6 μg/ml
[5] = peptide treatment concentration 8 μg/ml
[6] = peptide treatment concentration 16 μg/ml
[7] = peptide treatment concentration 32 μg/ml
[8] = peptide treatment concentration 64 μg/ml

For `CC[C@H](C)[C@H](NC(=O)[C@H](CCCCN)NC(=O)[C@H](Cc1c[nH]c2ccccc12)NC(=O)[C@@H](N)CCCNC(=N)N)C(=O)N[C@@H](Cc1ccccc1)C(=O)N[C@@H](CCCCN)C(=O)N[C@@H](CCCCN)C(=O)N[C@H](C(=O)N1CCC[C@H]1C(=O)N[C@@H](CCCCN)C(=O)N[C@@H](Cc1ccccc1)C(=O)N[C@@H](CC(C)C)C(=O)N[C@@H](Cc1c[nH]cn1)C(=O)N[C@@H](CO)C(=O)N[C@@H](Cc1c[nH]c2ccccc12)C(=O)N[C@@H](CCCCN)C(=O)N[C@@H](CCCCN)C(=O)N[C@@H](Cc1ccccc1)C(N)=O)[C@@H](C)CC` [PapMA-3, RWK IFK KIP KFL HSW KKF-NH2] (H-RWKIFKKIPKFLHSWKKF-NH2; N-terminus assumed), the “Minimal inhibitory concentration MIC” value (B. subtilis) was >128 µg/mL, the “Erythromycin MIC during combined treatment with peptide” value (MDRAB 12035; [1]) was 32 µg/mL and the “Linezolid MIC during combined treatment with peptide” value (MDRAB 12035; [1]) was >128 µg/mL. For the same molecule, the “Vancomycin MIC during combined treatment with peptide” value (MDRAB 12035; [1]) was >128 µg/mL, the “Erythromycin MIC during combined treatment with peptide” value (MDRAB 12035; [2]) was 16 µg/mL and the “Linezolid MIC during combined treatment with peptide” value (MDRAB 12035; [2]) was 128 µg/mL. The “Vancomycin MIC during combined treatment with peptide” value (MDRAB 12035; [2]) was >128 µg/mL, the “Erythromycin MIC during combined treatment with peptide” value (MDRAB 12035; [3]) was 8 µg/mL and the “Linezolid MIC during combined treatment with peptide” value (MDRAB 12035; [3]) was 32 µg/mL. For the same molecule, the “Vancomycin MIC during combined treatment with peptide” value (MDRAB 12035; [3]) was 128 µg/mL, the “Erythromycin MIC during combined treatment with peptide” value (MDRAB 12035; [4]) was 4 µg/mL and the “Linezolid MIC during combined treatment with peptide” value (MDRAB 12035; [4]) was 32 µg/mL. The “Vancomycin MIC during combined treatment with peptide” value (MDRAB 12035; [4]) was 32 µg/mL, the “Erythromycin MIC during combined treatment with peptide” value (MDRAB 12035; [5]) was 0.25 µg/mL and the “Linezolid MIC during combined treatment with peptide” value (MDRAB 12035; [5]) was 16 µg/mL. The “Vancomycin MIC during combined treatment with peptide” value (MDRAB 12035; [5]) was 16 µg/mL, the “Erythromycin MIC during combined treatment with peptide” value (MDRAB 12035; [6]) was 0 µg/mL and the “Linezolid MIC during combined treatment with peptide” value (MDRAB 12035; [6]) was 0 µg/mL. The “Vancomycin MIC during combined treatment with peptide” value (MDRAB 12035; [6]) was 0 µg/mL, the “Erythromycin MIC during combined treatment with peptide” value (MDRAB 12035; [7]) was 0 µg/mL and the “Linezolid MIC during combined treatment with peptide” value (MDRAB 12035; [7]) was 0 µg/mL. The “Vancomycin MIC during combined treatment with peptide” value (MDRAB 12035; [7]) was 0 µg/mL, the “Erythromycin MIC during combined treatment with peptide” value (MDRAB 12035; [8]) was 0 µg/mL and the “Linezolid MIC during combined treatment with peptide” value (MDRAB 12035; [8]) was 0 µg/mL. The “Vancomycin MIC during combined treatment with peptide” value (MDRAB 12035; [8]) was 0 µg/mL, the “Minimal inhibitory concentration MIC” value (S. epidermidis) was >128 µg/mL and the “Antibiotic MIC, Erythromycin” value (MDREC 1229; [1]) was 128 µg/mL. The “Antibiotic MIC, Linezolid” value (MDREC 1229; [1]) was >128 µg/mL, the “Antibiotic MIC, Vancomycin” value (MDREC 1229; [1]) was >128 µg/mL and the “Antibiotic MIC, Erythromycin” value (MDREC 1229; [2]) was 32 µg/mL. For the same molecule, the “Antibiotic MIC, Linezolid” value (MDREC 1229; [2]) was 64 µg/mL, the “Antibiotic MIC, Vancomycin” value (MDREC 1229; [2]) was >128 µg/mL and the “Antibiotic MIC, Erythromycin” value (MDREC 1229; [3]) was 32 µg/mL. For the same molecule, the “Antibiotic MIC, Linezolid” value (MDREC 1229; [3]) was 64 µg/mL, the “Antibiotic MIC, Vancomycin” value (MDREC 1229; [3]) was >128 µg/mL and the “Antibiotic MIC, Erythromycin” value (MDREC 1229; [4]) was 16 µg/mL. For the same molecule, the “Antibiotic MIC, Linezolid” value (MDREC 1229; [4]) was 32 µg/mL, the “Antibiotic MIC, Vancomycin” value (MDREC 1229; [4]) was >128 µg/mL and the “Antibiotic MIC, Erythromycin” value (MDREC 1229; [5]) was 4 µg/mL. The “Antibiotic MIC, Linezolid” value (MDREC 1229; [5]) was 16 µg/mL, the “Antibiotic MIC, Vancomycin” value (MDREC 1229; [5]) was 128 µg/mL and the “Antibiotic MIC, Erythromycin” value (MDREC 1229; [6]) was 0.25 µg/mL. For the same molecule, the “Antibiotic MIC, Linezolid” value (MDREC 1229; [6]) was 4 µg/mL, the “Antibiotic MIC, Vancomycin” value (MDREC 1229; [6]) was 16 µg/mL and the “Antibiotic MIC, Erythromycin” value (MDREC 1229; [7]) was 0 µg/mL. The “Antibiotic MIC, Linezolid” value (MDREC 1229; [7]) was 0 µg/mL, the “Antibiotic MIC, Vancomycin” value (MDREC 1229; [7]) was 0 µg/mL and the “Antibiotic MIC, Erythromycin” value (MDREC 1229; [8]) was 0 µg/mL. The “Antibiotic MIC, Linezolid” value (MDREC 1229; [8]) was 0 µg/mL, the “Antibiotic MIC, Vancomycin” value (MDREC 1229; [8]) was 0 µg/mL and the “Minimal inhibitory concentration MIC” value (MDREC 1238) was 64 µg/mL (≈ 26.5 µM). For the same molecule, the “Minimal inhibitory concentration MIC” value (MDRPA 2003) was 16 µg/mL (≈ 6.62 µM), the “Minimal inhibitory concentration MIC” value (MDRPA 2002) was 16 µg/mL (≈ 6.62 µM) and the “Minimal inhibitory concentration MIC” value (S. aureus) was >128 µg/mL. The “Minimal inhibitory concentration MIC” value (MRSA 3114) was >128 µg/mL.
